# Results as given in US5189044A, “Isoquinoline-1,3-dione acetyl carbamates useful as aldose reductase inhibitors” (American Home Products Corporation, priority 1992, dated 1993).
# How the values were obtained:
# [1] = tested on: dulcitol accumulation in the diaphragm; experiment: galactosemic rats, dulcitol (galactitol) accumulation in diaphragm; assay type: in vivo, rat (Sprague-Dawley); settings: 4 days, vs untreated galactosemic rats
# Text: (§1) The aldose reductase inhibiting property of the compounds of this invention and the utilization of the compounds in preventing, diminishing and alleviating diabetic complications are demonstrable in experiments using galactosemic rats, see Dvornik et al., Science, 182, 1146 (1973). Such experiments are exemplified hereinbelow after the listing of the following general comments pertaining to these experiments:
# (§2) (a) Four or more groups of six male rats, 50-70 g, Sprague-Dawley strain, were used. The first group, the control group, was fed a mixture of laboratory chow (Rodent Laboratory Chow, Purina) and glucose at 20% (w/w %) concentration. The untreated galactosemic group was fed a similar diet in which galactose is substituted for glucose. The third group was fed a diet prepared by mixing a given amount of the test compound with the galactose containing diet. The concentration of the galactose in the diet of the treated groups was the same as that for the untreated galactosemic group.
# (§3) (b) After four days, the animals were killed by euthanization. The lenses were removed from the eyes and weighed. The sciatic nerves were dissected as completely as possible and weighed. Both tissues when frozen can be kept up to two weeks before being analyzed for dulcitol.
# (§4) The figures under N and D represent the percentage decrease of dulcitol accumulation in the tissues of the sciatic nerve and diaphragm, respectively, for treated rats as compared to untreated rats.
# [2] = tested on: aldose reductase; settings: 10^-5 M; aldose reductase from bovine lens
# Experimental: (c) The polyol determination was performed by a modification of the procedure of M. Kraml and L. Cosyns, Clin. Biochem., 2,373 (1969). Only two minor reagent changes were made: (a) The rinsing mixture was an aqueous 5% (w/v) trichloroacetic acid solution and (b) the stock solution was prepared by dissolving 25 mg of dulcitol in 100 ml of an aqueous trichloroacetic acid solution. [N.B.: For each experiment the average value found in the tissue from rats fed the glucose diet was subtracted from the individual values found in the corresponding tissue in galactose-fed rats to obtain the amount of polyol accumulated.] […] In the present case the procedure of Hayman and Kinoshita was modified in that the final chromatography step was omitted in the preparation of the enzyme from bovine lens.
# [3] = tested on: dulcitol accumulation in the sciatic nerve; experiment: galactosemic rats, dulcitol (galactitol) accumulation in sciatic nerve; assay type: in vivo, rat (Sprague-Dawley); settings: 4 days, vs untreated galactosemic rats
# Text: as §1, §2, §3, §4
SMILES,"% Lowering Galacitol Accumulation in Vivo, Diaphragm ([1]; 49.3 mg/kg/day in diet)","% Lowering Galacitol Accumulation in Vivo, Diaphragm ([1]; 93.6 mg/kg/day in diet)",% Inhibition in vitro [2],"% Lowering Galacitol Accumulation in Vivo, Sciatic Nerve ([3]; 49.3 mg/kg/day in diet)","% Lowering Galacitol Accumulation in Vivo, Sciatic Nerve ([3]; 93.6 mg/kg/day in diet)","% Lowering Galacitol Accumulation in Vivo, Diaphragm ([1]; 48.8 mg/kg/day in diet)","% Lowering Galacitol Accumulation in Vivo, Diaphragm ([1]; 96.6 mg/kg/day in diet)","% Lowering Galacitol Accumulation in Vivo, Sciatic Nerve ([3]; 48.8 mg/kg/day in diet)","% Lowering Galacitol Accumulation in Vivo, Sciatic Nerve ([3]; 96.6 mg/kg/day in diet)"
COC(=O)NC(=O)CC1C(=O)N(Cc2nc3cc(C(F)(F)F)ccc3s2)C(=O)c2ccc(F)cc21 (stereo not shown) [F],74%,81%,83%,39%,59%,–,–,–,–
COC(=O)NC(=O)CC1C(=O)N(Cc2nc3cc(C(F)(F)F)ccc3s2)C(=O)c2ccccc21 (stereo not shown) [H],–,–,95%,–,–,81%,87%,61%,73%
